Converted amounts (≈) assume the structure as drawn. “And” between values parts separate entries of the source, which are not always exact repeats. Identical values can stand only once. Like-named read-outs stand apart in the source and are kept apart here.
How the values were obtained:
HIV-1 = assay: microbe, parasite or virus in culture; conditions: Human immunodeficiency virus 1, PBMC, read-out: PBM (EC50)
HIV p24 and p41 = assay: Inhibition of HIV replication in human PBM cells, western blot analysis (Table 3)
in vivo = type: in vivo, rhesus monkey; conditions: rhesus monkeys, oral dose of 920 mg
Experimental: In rhesus monkeys, the pharmocokinetic parameters after an oral dose of […] of CS-87 are as follows: […]

SIV (SMM) = assay: Median effective antiviral concentration against SIV (Table 5); type: cell-based, simian immunodeficiency virus
From the text: (§1) A comparison of the differences in median effective an tiviral concentrations between human, non-human primate, and murine retroviruses is shown in Table 5. […] A further comparison of the activity of several nucleoside analogues, including CS-87, against HIV-1 and SIV in human PBM cells is shown in FIG. 6. The effect of delayed treatment with AZT, CS-87 or CS-91 on the replication of HIV-1 and SIV in human PBM cells is shown in FIGS. 7a, b, and c.

parainfluenza virus-3 = conditions: Colla et al.; cited from earlier work
uninfected cells = conditions: tested up to 200 μM
Coxsackie virus B4 = conditions: Colla et al.; cited from earlier work
[1] = system: Mouse ecotropic (Cas-Br-M); assay: Median effective antiviral concentration against mouse ecotropic virus (Table 5); type: cell-based, murine retrovirus; conditions: unidentified retrovirus
From the text: as §1

in vitro = type: cell-based
From the text: The effect of CS-87 on colony formation of human granulocytes-macrophage precursor cells was compared with the effects of AZT and CS-85 in FIG. 1. Vero cells are very fast growing cells, and it can be seen from FIG. 2a that up to a concentration of about 400 micromolar, there is relatively little toxicity to these cells. PBM cells are somewhat more sensitive to CS-87 than the Vero cells, but these cells will still tolerate a concentration of CS-87 of up to about 200 micromolar before significant inhibition is noted (see FIG. 2b).

reovirus-1 = conditions: Colla et al.; cited from earlier work
polio virus-1 = conditions: cited from earlier work
Sindbis virus = conditions: Colla et al.; cited from earlier work
[2] = system: liver enzymes SGPT and SGOT; type: in vivo, rhesus monkey; conditions: rhesus monkeys, FIG. 4
HIV-1 (Strain HTLV-III) = assay: Antiviral activity against HIV-1 in ATH-8 cells (Table 4)
[3] = system: two particular enzymes isolated from L1210 cells; conditions: Lin et al.; cited from earlier work
measles = conditions: Colla et al.; cited from earlier work
[4] = Effect on weight of uninfected BALB/c mice (FIG. 3); type: in vivo, mouse; conditions: compared with each other and control
HIV-1 (Strain RF-II) = assay: Antiviral activity against HIV-1 in HeLa-T4 cells (Table 4); type: cell-based
Experimental: Evaluation in Hela-T4 cells infected with HIV-1 (Strain RF-II)
HeLa-T4 cells (described in Cell 47: 333, 1986) are maintained in Dulbecco's Modified Eagle medium containing 10% inactivated fetal calf serum, penicillin (100 U/ml) and streptomycin (100 μg/ml), and the antibiotic G418 (1 mg/ml). The cells are seeded onto a 96-well plate (2×10^4 cells/well per 0.1 ml), and two days later, the supernatant is removed and the virus added. After adsorption for 45 minutes, the inoculum is removed and the cells washed with phosphate-buffered saline (pH 7.2). The compounds at different concentration are then added in maintenance medium (containing 2% serum). […] The cells are fixed with a mixture of 5% glacial acetic acid/95% Ethanol for 15 minutes, and then stained with Giemsa (20% in PSB) for 4 hours. The plates are then washed and dried. The foci are then enumerated with a dissecting stereomicroscope.

HIV-1 p24 = assay: Inhibition of HIV replication in human PBM cells, p24 RIA (Table 3)
Friend (EY-10) = assay: Median effective antiviral concentration against Friend virus (Table 5); type: cell-based, murine retrovirus; conditions: unidentified retrovirus, in Mus musculus
From the text: as §1

NIH Swiss mice = conditions: 67 days; for Hct / Hgb / MCH / MCHC / MCV / PLT / RBC / RDW / WBC: oral 0.5 mg/ml ad libitum
sarcoma 180 cells = conditions: in vitro; Lin et al.; cited from earlier work
HIV = conditions: in vitro
[5] = Human immunodeficiency virus 1, PBMC, in Homo sapiens, read-out: RIA p24 % Inhibition

[N-]=[N+]=N[C@H]1C[C@H](n2ccc(=O)[nH]c2=O)O[C@@H]1CO [CS-87, 3'-azido-2',3'-dideoxyuridine]
EC50 (HIV-1): 0.18 µM | Western blot p24 (band intensity) (HIV p24 and p41; 0.1 μM): 3+ | Western blot p41 (band intensity) (HIV p24 and p41; 0.1 μM): 2+ | Western blot p24 (band intensity) (HIV p24 and p41; 1 μM): 2+ | Western blot p41 (band intensity) (HIV p24 and p41; 1 μM): 1+ | Western blot p24 (band intensity) (HIV p24 and p41; 10 μM): 0 | Western blot p41 (band intensity) (HIV p24 and p41; 10 μM): 0 | AUC (in vivo; rhesus monkey, in vivo): 113 µg·h/mL | CL/F (in vivo; rhesus monkey, in vivo, read-out: clearance (converted)): 29 mL/min/kg | k el (in vivo; rhesus monkey, in vivo, read-out: elimination rate constant, k (converted)): 0.000397 s⁻¹ | half-life (in vivo; rhesus monkey, in vivo, read-out: elimination t1/2 k (converted)): 28.8 min | Vd/F (in vivo; rhesus monkey, in vivo, read-out: volume of distribution (Vss)): 1.2 L/kg | absorption rate constant (ka) (in vivo): 1.73 h⁻¹ | absorption rate t1/2 (in vivo): 24 min | effectiveness against SIV (SMM) compared with Friend or mouse ecotropic virus (SIV (SMM); SIV (SMM) vs Friend (EY-10) or Cas-Br-M): much more effective | EC50 (SIV (SMM); Simian immunodeficiency virus): 0.2 µM | activity against parainfluenza virus-3 (parainfluenza virus-3): inactive | toxicity to the uninfected cells (uninfected cells): not toxic | activity against Coxsackie virus B4 (Coxsackie virus B4): inactive | EC50 [1]: 9.1 µM | MNTC (in vitro; human, PBM cells, FIG. 2b, read-out: concentration tolerated by PBM cells before significant inhibition is noted): ~200 µM | MNTC (in vitro; monkey, Vero cells, FIG. 2a, read-out: concentration up to which there is relatively little toxicity to Vero cells): ~400 µM | activity against reovirus-1 (reovirus-1): inactive | activity against polio virus-1 (polio virus-1): inactive | activity against Sindbis virus (Sindbis virus): inactive | toxicity by oral (po) vs intravenous administration [2]: less toxic than intravenous administration | activity compared to d2C in ATH-8 cells (HIV-1 (Strain HTLV-III); ATH-8 cells): comparable activity to d2C | MIC (HIV-1 (Strain HTLV-III); Human immunodeficiency virus 1, 240 h, read-out: ATH-8 (MIC)): 0.4 µM (≈ 0.101 µg/mL) | inhibitory activity towards two particular enzymes isolated from L1210 cells [3]: only marginal inhibitory activity | activity against measles (measles): inactive | effect on weight of uninfected BALB/c mice [4]: no significant difference | activity compared to d2C in HeLa-T4 cells (HIV-1 (Strain RF-II)): less active | EC50 (HIV-1 (Strain RF-II); Human immunodeficiency virus 1, HeLaT4, HIV-1): 1.24 µM | RIA p24 (Dupont kit) (HIV-1 p24; 0.1 μM): 21.86 ng/mL | RIA p24 (Dupont kit) (HIV-1 p24; 1 μM): 11.76 ng/mL | RIA p24 (Dupont kit) (HIV-1 p24; 10 μM): 0.65 ng/mL | inhibition at 0.1 µM (HIV-1 p24; [5]): 9.2% | inhibition at 1 µM (HIV-1 p24; [5]): 51.2% | inhibition at 10 µM (HIV-1 p24; [5]): 97.3% | EC50 (Friend (EY-10)): > 10 µM | Hct (NIH Swiss mice; Mean of group): 42.4% | Hgb (NIH Swiss mice; Mean of group): 14.0 g/dL | MCH (NIH Swiss mice; Mean of group): 16.7 pg | MCHC (NIH Swiss mice; Mean of group): 33.1 g/dL | MCV (NIH Swiss mice; Mean of group): 50.4 fL | PLT (NIH Swiss mice; Mean of group): 1.3 × 10^6 | RBC (NIH Swiss mice; Mean of group): 8.4 × 10^6 | RDW (NIH Swiss mice; Mean of group): 26.0% | WBC (NIH Swiss mice; Mean of group): 8.0 × 10^3 | toxicity compared to AZT (RBC and MCV values) (NIH Swiss mice; NIH Swiss mice, oral 0.5 mg/ml): significantly less toxicity | Hct (NIH Swiss mice; individual mouse): 37.2% and 44.4% and 42.3% and 45.7% | Hgb (NIH Swiss mice; individual mouse): 12.9 g/dL and 14.1 g/dL and 14.2 g/dL and 14.8 g/dL | MCH (NIH Swiss mice; individual mouse): 16.9 pg and 16.4 pg and 16.6 pg and 16.8 pg | MCHC (NIH Swiss mice; individual mouse): 34.6 g/dL and 31.8 g/dL and 33.5 g/dL and 32.4 g/dL | MCV (NIH Swiss mice; individual mouse): 48.8 fL and 51.7 fL and 49.4 fL and 51.8 fL | PLT (NIH Swiss mice; individual mouse): 1.158 × 10^6 and 1.35 × 10^6 and 1.305 × 10^6 and 1.361 × 10^6 | RBC (NIH Swiss mice; individual mouse): 7.6 × 10^6 and 8.6 × 10^6 and 8.8 × 10^6 | RDW (NIH Swiss mice; individual mouse): 34.3% and 16.8% and 37.7% and 15.3% | WBC (NIH Swiss mice; individual mouse): 2.6 × 10^3 and 8.9 × 10^3 and 7.9 × 10^3 and 12.6 × 10^3 | activity against sarcoma 180 cells (sarcoma 180 cells): inactive | activity against HIV, in words (HIV): selective anti-HIV-1 activity

Reference: patent US4916122A, “3'-Azido-2',3'-dideoxyuridine anti-retroviral composition” (University of Georgia Research Foundation, Inc., priority 1987, dated 1990)
